Legend:
[1] = Metabolic stability in human liver microsomes assessed as half life at 1 uM measured upto 90 mins by LC-MS/MS analysis; type: ADME, Microsome
[2] = Cmax in Sprague-Dawley rat at 1 mg/kg, iv measured upto 24 hrs by LC-MS/MS analysis; type: ADME, organism-based; design: dose 1 mg/kg, time < 24 hrs, route iv; settings: in vivo
[3] = Apparent […] clearance in Sprague-Dawley rat at 1 mg/kg, iv measured upto 24 hrs by LC-MS/MS analysis; type: ADME, organism-based; settings: in vivo
[4] = AUClast in Sprague-Dawley rat at 5 mg/kg, po measured upto 24 hrs by LC-MS/MS analysis; type: ADME, organism-based; design: dose 5 mg/kg, time < 24 hrs, route po; settings: in vivo
[5] = Metabolic stability in rat liver microsomes assessed as half life at 1 uM measured upto 90 mins by LC-MS/MS analysis; type: ADME, Microsome
[6] = Volume of distribution at steady state in Sprague-Dawley rat at 1 mg/kg, iv measured upto 24 hrs by LC-MS/MS analysis; type: ADME, organism-based; settings: in vivo, read-out: Vdss
[7] = Half life in Sprague-Dawley rat at 5 mg/kg, po measured upto 24 hrs by LC-MS/MS analysis; type: ADME, organism-based; settings: in vivo
[8] = Half life in Sprague-Dawley rat at 1 mg/kg, iv measured upto 24 hrs by LC-MS/MS analysis; type: ADME, organism-based; settings: in vivo
[9] = Metabolic stability in human liver microsomes assessed as clearance at 1 uM measured upto 90 mins by LC-MS/MS analysis; type: ADME, Microsome; settings: read-out: CLH
[10] = AUClast in Sprague-Dawley rat at 1 mg/kg, iv measured upto 24 hrs by LC-MS/MS analysis; type: ADME, organism-based; design: dose 1 mg/kg, time < 24 hrs, route iv; settings: in vivo
[11] = Metabolic stability in rat liver microsomes assessed as clearance at 1 uM measured upto 90 mins by LC-MS/MS analysis; type: ADME, Microsome; settings: read-out: CLH
[12] = Oral bioavailability in Sprague-Dawley rat at 5 mg/kg measured upto 24 hrs by LC-MS/MS analysis; type: ADME, organism-based; settings: in vivo
[13] = Cmax in Sprague-Dawley rat at 5 mg/kg, po measured upto 24 hrs by LC-MS/MS analysis; type: ADME, organism-based; design: dose 5 mg/kg, time < 24 hrs, route po; settings: in vivo

For `CC(C)n1cnnc1-c1cccc(NC(=O)c2cc3c(cc2F)OCc2cncn2-3)c1`, the half-life at 1 µM [1] was 0.458 h, the Cmax [2] was 235 ng/mL and the CL/F [3] was 50.3 mL/min/kg. The AUC(0-t) at 24 h [4] was 939 ng·h/mL, the half-life at 1 µM [5] was 0.11 h and the Vd [6] was 2.61 L/kg. It also gave a half-life [7] of 1.13 h, a half-life [8] of 0.63 h and a CLint scaled at 1 µM [9] of 63.3 mL/min/kg. The AUC(0-t) at 24 h [10] was 329 ng·h/mL, the CLint scaled at 1 µM [11] was 378 mL/min/kg and the bioavailability [12] was 57.4%. For the same compound, the Cmax [13] was 445 ng/mL.

`CC(C)n1cnnc1-c1cccc(NC(=O)c2cc3c(cc2F)CCCC(=O)N3C)n1` gave a Cmax [2] of 597 ng/mL, a CL/F [3] of 43.7 mL/min/kg and an AUC(0-t) at 24 h [4] of 2210 ng·h/mL. It also gave a Vd [6] of 1.56 L/kg, a half-life [7] of 2.37 h and a half-life [8] of 0.73 h. It also gave an AUC(0-t) at 24 h [10] of 381 ng·h/mL, a bioavailability [12] of 116% and a Cmax [13] of 582 ng/mL.

`O=C1COc2cc(F)c(C(=O)Nc3cccc(-c4nncn4C4CCCC4)n3)cc2N1` showed a half-life at 1 µM [1] of 0.307 h, a Cmax [2] of 1080 ng/mL and a CL/F [3] of 18.2 mL/min/kg. The AUC(0-t) at 24 h [4] was 3390 ng·h/mL, the half-life at 1 µM [5] was 0.585 h and the Vd [6] was 0.97 L/kg. The half-life [7] was 2.36 h, the half-life [8] was 0.86 h and the CLint scaled at 1 µM [9] was 94.3 mL/min/kg. For the same compound, the AUC(0-t) at 24 h [10] was 919 ng·h/mL, the CLint scaled at 1 µM [11] was 70.8 mL/min/kg and the bioavailability [12] was 77.7%. For the same compound, the Cmax [13] was 1490 ng/mL.

`O=C(Nc1cccc(-c2nncn2-c2ccccc2)n1)c1cc2c(cc1F)OCc1cncn1-2` showed a half-life at 1 µM [1] of 1.1 h, a half-life at 1 µM [5] of 0.258 h and a CLint scaled at 1 µM [9] of 26.4 mL/min/kg. For the same compound, the CLint scaled at 1 µM [11] was 160 mL/min/kg.

`O=C(Nc1cccc(-c2nncn2CC2CC2)c1)c1cc2c(cc1F)OCc1cncn1-2` showed a half-life at 1 µM [1] of 1.12 h, a Cmax [2] of 812 ng/mL and a CL/F [3] of 38.5 mL/min/kg. The AUC(0-t) at 24 h [4] was 865 ng·h/mL, the half-life at 1 µM [5] was 0.167 h and the Vd [6] was 1.08 L/kg. It also gave a half-life [7] of 0.97 h, a half-life [8] of 0.55 h and a CLint scaled at 1 µM [9] of 25.8 mL/min/kg. It also gave an AUC(0-t) at 24 h [10] of 431 ng·h/mL, a CLint scaled at 1 µM [11] of 248 mL/min/kg and a bioavailability [12] of 40.2%. For the same compound, the Cmax [13] was 635 ng/mL.

Compound `CC(C)n1cnnc1-c1cccc(NC(=O)c2cc3c(cc2F)CCCC(=O)N3)n1` has a half-life at 1 µM [1] of 8.8 h, a Cmax [2] of 1070 ng/mL and a CL/F [3] of 12.8 mL/min/kg. The AUC(0-t) at 24 h [4] was 4830 ng·h/mL, the half-life at 1 µM [5] was 6.24 h and the Vd [6] was 1.07 L/kg. For the same compound, the half-life [7] was 1.63 h, the half-life [8] was 1.24 h and the CLint scaled at 1 µM [9] was 3.3 mL/min/kg. For the same compound, the AUC(0-t) at 24 h [10] was 1270 ng·h/mL, the CLint scaled at 1 µM [11] was 6.6 mL/min/kg and the bioavailability [12] was 77.7%. The Cmax [13] was 1270 ng/mL.

`CC(C)n1cnnc1-c1cccc(NC(=O)c2cc3c(cc2F)OCc2cncn2-3)n1` gave a half-life at 1 µM [1] of 1.78 h, a Cmax [2] of 793 ng/mL and a CL/F [3] of 31.3 mL/min/kg. The AUC(0-t) at 24 h [4] was 2280 ng·h/mL, the half-life at 1 µM [5] was 0.187 h and the Vd [6] was 1.22 L/kg. It also gave a half-life [7] of 1.1 h, a half-life [8] of 0.67 h and a CLint scaled at 1 µM [9] of 16.3 mL/min/kg. It also gave an AUC(0-t) at 24 h [10] of 529 ng·h/mL, a CLint scaled at 1 µM [11] of 222 mL/min/kg and a bioavailability [12] of 86.9%. The Cmax [13] was 794 ng/mL.

`O=C(Nc1cccc(-c2nncn2CC2CC2)n1)c1cc2c(cc1F)OCc1cncn1-2` gave a half-life at 1 µM [1] of 1.2 h, a Cmax [2] of 804 ng/mL and a CL/F [3] of 23.7 mL/min/kg. It also gave an AUC(0-t) at 24 h [4] of 7820 ng·h/mL, a half-life at 1 µM [5] of 0.275 h and a Vd [6] of 1.13 L/kg. The half-life [7] was 1.04 h, the half-life [8] was 0.75 h and the CLint scaled at 1 µM [9] was 24.1 mL/min/kg. It also gave an AUC(0-t) at 24 h [10] of 706 ng·h/mL, a CLint scaled at 1 µM [11] of 151 mL/min/kg and a Cmax [13] of 3520 ng/mL.

Compound `CC(C)n1cnnc1-c1cccc(NC(=O)c2cc3c(cc2F)OCC(=O)N3C)n1` has a half-life at 1 µM [1] of 5.67 h, a Cmax [2] of 779 ng/mL and a CL/F [3] of 7.5 mL/min/kg. The AUC(0-t) at 24 h [4] was 10900 ng·h/mL, the half-life at 1 µM [5] was 2.46 h and the Vd [6] was 1.49 L/kg. The half-life [7] was 2.11 h, the half-life [8] was 1.62 h and the CLint scaled at 1 µM [9] was 5.1 mL/min/kg. For the same compound, the AUC(0-t) at 24 h [10] was 2220 ng·h/mL, the CLint scaled at 1 µM [11] was 16.8 mL/min/kg and the bioavailability [12] was 97.9%. The Cmax [13] was 1830 ng/mL.

Compound `CC(CO)n1cnnc1-c1cccc(NC(=O)c2cc3c(cc2F)CCCC(=O)N3)n1` (stereo not given) has a half-life at 1 µM [1] of 16.3 h, a Cmax [2] of 262 ng/mL and a CL/F [3] of 154 mL/min/kg. For the same compound, the half-life at 1 µM [5] was 4.37 h, the Vd [6] was 3.01 L/kg and the half-life [8] was 0.28 h. For the same compound, the CLint scaled at 1 µM [9] was 1.8 mL/min/kg, the AUC(0-t) at 24 h [10] was 108 ng·h/mL and the CLint scaled at 1 µM [11] was 9.5 mL/min/kg.

`CC(C)n1cnnc1-c1cccc(NC(=O)c2cc3c(cc2F)CCC(=O)N3)c1` showed a half-life at 1 µM [1] of 17.3 h, a Cmax [2] of 274 ng/mL and a CL/F [3] of 74.5 mL/min/kg. It also gave an AUC(0-t) at 24 h [4] of 157 ng·h/mL, a half-life at 1 µM [5] of 5.49 h and a Vd [6] of 3.41 L/kg. It also gave a half-life [7] of 1.79 h, a half-life [8] of 0.68 h and a CLint scaled at 1 µM [9] of 1.7 mL/min/kg. The AUC(0-t) at 24 h [10] was 222 ng·h/mL, the CLint scaled at 1 µM [11] was 7.5 mL/min/kg and the bioavailability [12] was 15.1%. It also gave a Cmax [13] of 58 ng/mL.

Work on `Cc1cc(F)c(C(=O)Nc2cccc(-c3nncn3C(C)C)n2)cc1-n1cnc(C2CC2)c1` [SELONSERTIB] yielded a Cmax [2] of 3030 ng/mL, an AUC(0-t) at 24 h [4] of 38300 ng·h/mL and a Vd [6] of 0.27 L/kg. It also gave a bioavailability [12] of 129% and a Cmax [13] of 6030 ng/mL.
